Where a name gives a salt, the structure may show the parent alone.
Columns and labels:
[1] = system: cardiovascular tissues; assay: In vivo studies of vascular stiffening and cardiovascular collagen; parameters: species or system rodents, canines and primates
Source text: (§1) Cardiovascular risk correlates more closely with the systolic and the pulse pressure than with the diastolic pressure. In diabetic patients, the cardiovascular risk profile of diabetic patients is strongly correlated to duration of diabetes, glycemic control and blood pressure. Structural matrix proteins contribute to the function of vessels and the heart, and changes in the physical behavior of cardiovascular walls are believed to be important determinants of circulatory function. In elderly individuals, the loss of compliance in the aorta leads to isolated systolic hypertension, which in turn expands the arterial wall and thereby diminishes the dynamic range of elasticity.

[2] = system: Rats with left anterior descending coronary artery ligated; assay: Rat myocardial infarct model, left anterior descending coronary artery ligated; assay type: in vivo; conditions: 10 mg/kg intraperitoneal daily for 30 days before ligation and 14 days after
Protocol: Rats received a daily intraperitoneal dose of 10 mg/kg 3-[2-phenyl-2-oxoethyl]-4,5-dimethyl-thiazolium salt (compound A) (n=14) or placebo (n=15) for 30 days. The animals then underwent a thoracotomy and the left anterior descending coronary artery ligated. The chest was then closed and the animals allowed to recover for 14 days while continuing to be treated with compound A or placebo. The animals were then sacrificed and the hearts removed for histological examination. The weight of the infarcted tissue was 0.16±0.04 g for the placebo treated animals compared to 0.11±0.05 g for the compound A treated animals (p=0.04).

[3] = system: Type IV collagen; assay: In situ hybridization studies, Type IV collagen expression
Source text: as §1

[4] = system: TGFbeta; assay: In situ hybridization studies, TGFbeta expression
Source text: as §1

[5] = system: elderly patients with pulse pressures greater than 60 mm Hg; assay: Phase IIa clinical trial; assay type: in vivo, human
Source text: When the heart pumps blood into the vascular system, the ability of the arteries to expand helps to push blood through the body. When arteries become stiff, as they do in the natural process of aging, the ability of the arteries to expand is diminished and also has consequences for the heart. The heart has to work harder to pump the blood into the stiff arteries, and eventually hypertrophies (enlarges in size) to accomplish this. A hypertrophied heart is an inefficient pump, and is one of the disorders that leads to congestive heart failure. […] The potential clinical benefit of this is to lessen the effort that the heart must expend to push blood throughout the body. The effect is also believed to contribute to preventing hypertrophy and subsequent inefficiency of the heart, which inefficiency would contribute to congestive heart failure.
Atherosclerosis is a disease that involves deposition of blood lipids in plaque in the arteries throughout the body. In coronary arteries, accumulation of plaque progressively leads to reduced coronary flow, with occlusion of the arteries causing focal death of cardiac tissue (myocardial infarction, heart attack). If the amount of tissue that dies is large enough, death ensures. […] Reducing local deposits of plaque should eventually lessen the risk of myocardial infarction and death due to heart attacks.
Pulse pressure is the difference between systolic and diastolic blood pressure. In a young human, systolic pressure is typically 120 mm Hg and diastolic pressure is 80 mm Hg, resulting in a pulse pressure of 40 mm Hg. With age, in many individuals pulse pressure increases, largely due to the increase in systolic pressure that results from stiff vessel disease. In individuals with pulse pressure greater than 60 mm Hg there is an increased risk of death from cardiovascular morbidities. […] This decrease in pulse pressure was believed to be due primarily to the effect of the agent on lowering the systolic blood pressure.

[6] = system: dog model for diabetes; assay: Dog model for diabetes, ventricular elasticity; assay type: in vivo
Source text: as §1

Cc1sc[n+](CC(=O)c2ccccc2)c1C [compound A, 3-[2-phenyl-2-oxoethyl]-4,5-dimethyl-thiazolium salt] was tested, and the “mass of collagen in cardiovascular tissues” value ([1]; in vivo) was “reduction in the mass of collagen in cardiovascular tissues”, the vascular stiffening ([1]; in vivo studies in rodents, canines and primates) was “substantially ameliorating vascular stiffening” and the “weight of the infarcted tissue” value ([2]; n=14, p=0.04 vs placebo) was 0.11 ± 0.05 g. For the same molecule, the “thickness of the ventricular wall in the infarcted zone” value ([2]; n=14, p=0.09 vs placebo) was 2.56±0.22 mm, the “expression of Type IV collagen” value [3] was “reduces the expression of both Type IV collagen and TGFbeta” and the “expression of TGFbeta” value [4] was “reduces the expression of both Type IV collagen and TGFbeta”. The “stiffness of arteries, measured by the ratio of stroke volume (ml) to pulse pressure (mm Hg)” value ([5]; Phase IIa clinical trial) was “showed an ability to reverse the stiffness of arteries”, the “amount of circulating triglycerides (lipids)” value ([5]; Phase IIa trial) was “increased the amount of circulating triglycerides” and the pulse pressure ([5]; Phase IIa trial, elderly patients with pulse pressures greater than 60 mm Hg, statistically significant) was “reduced pulse pressure”. For the same molecule, the “end diastolic pressure and end diastolic volume, indicators of ventricular elasticity” value [6] was “returned to a value at about the mid-point between the disease impaired value and the value for control dogs”.
